From ChEMBL document CHEMBL1122789, “Synthesis and biological activity of structural analogues of the anticancer benzophenanthridine alkaloid nitidine chloride” (1984) come the findings set out here.

Assay [1] relates to P388. Kind of assay: Evaluated for percentage test/control (%T/C) in survival tumor system against P388 lymphocytic leukemia. In kind it is functional, Mus musculus.
For a further assay, the system named is L1210. The experiment in a line: Evaluated for percentage test/control (%T/C) in survival tumor system against L1210 lymphoid leukemia. In kind it is functional, Mus musculus.
For the next assay, the system named is B16. Kind of assay: Evaluated for percentage test/control (%T/C) in survival tumor system against B16 melanocarcinoma at dose 20 mg/Kg. In kind it is functional, Mus musculus.
In assay [2] the test system is P388. Kind of assay: Evaluated for anticancer activity against P388 lymphocytic leukemia system at a dose of 200 mg/Kg; Inactive. It counts as functional. The settings on record: Mus musculus.
A further assay deals with KB. The experiment in a line: Evaluated in vitro for cytotoxicity against KB cell culture system. In kind it is functional. The settings on record: Homo sapiens, read-out: ED50 (the source's name).

Active and inactive are the calls of the source. No cut-off for these calls is given here.

In the case of `COc1cc2c(ccc3c4cc(OC)c(OC)cc4c[n+](C)c23)cc1O.[Cl-]` [FAGARONINE], the T/C (as a rule, the result in the treated group divided by that in the control group, in per cent) with P388 [1] worked out at 265%.
In the case of `COc1cc2c[n+](C)c3c4cc5c(cc4ccc3c2cc1OC)OCO5.[Cl-]` [NITIDINE CHLORIDE], the T/C with P388 [1] stood at 209%; with L1210, 136%; with B16 it was 141%.
Take `COc1cc2cc(-c3ccc4c(c3)OCO4)[n+](C)cc2cc1OC.[Cl-]`: the Anticancer activity entry in the assay on P388 [2] was “inactive”. The EC50 in the assay with KB came to 5 ng/mL.
